Inconclusive results are not listed. Activity calls are given as the source filed them. The rule behind the calls is not given here.
System: Mycobacterium tuberculosis non-replicating, growth inhibition
Assay: growth inhibition of non-replicating M. tuberculosis (AID 488890)

With COc1cccc(C(=O)N2N=C(c3ccccn3)CC2(O)C(F)(F)F)c1 (stereo not given) as the compound, how does the IC50 read?
Its IC50 is 12.3 µM (inactive).

Which IC50 does the source give for O=C(CCS(=O)(=O)Cc1ccccc1)Nc1ncc([N+](=O)[O-])s1 here?
The IC50 was 1.97 µM.

How did the IC50 turn out when Cc1cc(NCc2ccccn2)n2ncc(-c3ccccc3)c2n1 was run?
Its IC50 is 1.93 µM.

With CC1C/C(=N/N2C(=O)CSC2=S)CC(C)(C)C1 (stereo not given) as the compound, how does the IC50 read?
Its IC50 is 30.6 µM (inactive).

How did the IC50 turn out when CCCCN1CCC(O)(c2ccccc2)C(C(=O)c2ccccc2)C1 (stereo not given) was run?
The IC50 was 4.86 µM.

With Cc1ccc(C(C)C)c(OCC(=O)OCc2c(C)noc2C)c1 as the compound, how does the IC50 read?
Its IC50 is 3.51 µM.

CCCN1C(=O)S/C(=C\c2ccc(N3CCOCC3)o2)C1=O was tested. Which IC50 did it give?
Its IC50 is 25.2 µM (inactive).

Which IC50 does the source give for O=C(Cc1ccccc1)N/N=C/c1ccc([N+](=O)[O-])s1 here?
Its IC50 is 14 µM (inactive).

With CCOC(=O)CC(=O)Nc1ccc(C(=O)OCC)cc1 as the compound, how does the IC50 read?
The IC50 was 5.23 µM.

Which IC50 does the source give for CCCn1c(O)c(N=NC(=O)c2ccco2)c2ccccc21 here?
The IC50 was 14.2 µM (inactive).

Cc1nc2ccc(OC(=O)c3ccccc3)cc2s1 was tested. Which IC50 did it give?
Its IC50 is 20.9 µM (inactive).

How did the IC50 turn out when N#CC(C(=O)NCc1ccco1)c1nc2ccccc2nc1N1CCOCC1 (stereo not given) was run?
Its IC50 is 15.9 µM (inactive).

For CCn1nnc(NC(=O)c2sc3ccccc3c2Cl)n1, which IC50 is on record?
Its IC50 is 28.5 µM (inactive).

S=C1SCN(Cc2cccnc2)CN1Cc1ccccc1 was tested. Which IC50 did it give?
Its IC50 is 14.9 µM (inactive).

For COc1ccc(C(=O)N/N=C(\C)c2ccccn2)cc1OC, which IC50 is on record?
Its IC50 is 4.92 µM.

Which IC50 does the source give for CC(/C=C\C=C\c1ccccc1)=N\NC(=O)c1cncc(Br)c1 here?
Its IC50 is 31.2 µM (inactive).

How did the IC50 turn out when CCc1ccccc1NC(=O)C1COc2ccccc2O1 (stereo not given) was run?
Its IC50 is 19.8 µM (inactive).

For CCOC(=O)C1CCN(Cc2ccc(-c3ccccc3)cc2)CC1, which IC50 is on record?
Its IC50 is 44 µM (inactive).

For O=C(OCc1cccc([N+](=O)[O-])c1)c1ccc2ccccc2n1, which IC50 is on record?
The IC50 was 7.25 µM.

How did the IC50 turn out when COc1ccc(C(=O)Nc2nnc(C3=COCCO3)o2)cc1 was run?
Its IC50 is 7.69 µM.

Which IC50 does the source give for COC(=O)CN(C#N)c1nc(N(C)C)nc(N(C)C)n1 here?
Its IC50 is 16.5 µM (inactive).

How did the IC50 turn out when O=C(COc1cccc2ccccc12)Nc1ccc(Cl)cc1C(=O)O was run?
Its IC50 is 6.24 µM.

How did the IC50 turn out when COc1cccc2sc(N3CCN(C(=O)c4ccc([N+](=O)[O-])o4)CC3)nc12 was run?
Its IC50 is less than 0.1 µM.

How did the IC50 turn out when Cc1cccc(NC(=O)COC(=O)c2cc3ccccc3oc2=O)c1 was run?
The IC50 was 14.2 µM (inactive).

CNc1nnc(Sc2ncccc2[N+](=O)[O-])s1 was tested. Which IC50 did it give?
The IC50 was 5.8 µM.

With O=C(CCN1CCC(c2cccs2)=N1)c1cccs1 as the compound, how does the IC50 read?
The IC50 was 4.15 µM.

With CCNC(=O)NC(=O)C(C)OC(=O)CCCSc1nc2ccccc2s1 (stereo not given) as the compound, how does the IC50 read?
The IC50 was 4.68 µM.

For Cc1ccc(C(=O)N/N=C/C=C/c2ccccc2)cc1, which IC50 is on record?
The IC50 was 3.77 µM.

C/C(=N\NC(=O)c1ccc([N+](=O)[O-])c(C)c1)c1ccccc1Cl was tested. Which IC50 did it give?
The IC50 was 12.2 µM (inactive).

For NC(=O)CN1CCN(C2CC(=O)N(CCc3ccccc3)C2=O)CC1 (stereo not given), which IC50 is on record?
Its IC50 is 19.9 µM (inactive).

With Cc1c(CN2CCC(CO)(CCOc3ccccc3)CC2)[nH]c2ccc(Cl)cc12 as the compound, how does the IC50 read?
The IC50 was 15.9 µM (inactive).

With CC[n+]1c(/C=C(\C)Nc2ccccc2)sc2ccccc21 as the compound, how does the IC50 read?
Its IC50 is 6.34 µM.

Which IC50 does the source give for Cc1cc(C)n2nc(N)c(N=Nc3ccccc3)c2n1 here?
The IC50 was 5.87 µM.

How did the IC50 turn out when O=C(CN1CCC(NC(=O)c2cccc(F)c2)CC1)Nc1ccc(Br)cc1 was run?
Its IC50 is 31.9 µM (inactive).

CC(C)(C)c1ccc(S(=O)(=O)NNC(=O)c2cc3ccccc3[nH]2)cc1 was tested. Which IC50 did it give?
Its IC50 is > 25 µM (inactive).

O=C(CNC(=O)c1ccco1)OCc1ccc(C(=O)Oc2ccccc2)cc1 was tested. Which IC50 did it give?
Its IC50 is 8.17 µM.

How did the IC50 turn out when O=C(NNC(=S)NC(=O)c1cn(-c2ccccc2)nc1-c1ccccc1)c1ccncc1 was run?
The IC50 was 21.9 µM (inactive).

With COc1cc2[nH]c(Cl)c([N+](=O)[O-])c2cc1OC as the compound, how does the IC50 read?
The IC50 was 14.1 µM (inactive).

How did the IC50 turn out when CC(C)c1nnc(NC(=O)c2c(O)c3cccc4c3n(c2=O)CCC4)s1 was run?
Its IC50 is 1.24 µM.

COc1ccc(NC(=O)c2cc3ccccc3o2)cc1 was tested. Which IC50 did it give?
The IC50 was 5.57 µM.

Cc1ccc(/C=N/NC(=O)C2COc3ccccc3O2)s1 (stereo not given) was tested. Which IC50 did it give?
Its IC50 is 0.7 µM.

How did the IC50 turn out when CCS(=O)(=O)c1ncc(Cl)c(C(=O)Nc2ccc(S(=O)(=O)N3CCC(C)CC3)cc2)n1 was run?
The IC50 was 9.7 µM.

Which IC50 does the source give for O=C(N/N=C/C(Br)=C/c1ccccc1)c1ccncc1 here?
The IC50 was 3.89 µM.

With Cc1cc2cc(CNC(=O)COc3ccccc3)ccc2n1C as the compound, how does the IC50 read?
Its IC50 is 26 µM (inactive).

CCOc1ccc(NCC(=O)c2ccc(C)cc2)cc1 was tested. Which IC50 did it give?
Its IC50 is 4.95 µM.

With O=C(Oc1cccc([N+](=O)[O-])c1)c1ccc2c(=O)n3c(nc2c1)CCC3 as the compound, how does the IC50 read?
Its IC50 is 6.82 µM.

With CCOC(=O)C(C)(C)n1nnc(-c2ccc([N+](=O)[O-])cc2)n1 as the compound, how does the IC50 read?
The IC50 was 14.3 µM (inactive).

How did the IC50 turn out when Cc1ccc(CCC(=O)Nc2ccccc2F)s1 was run?
The IC50 was 26.2 µM (inactive).

For CCOC(=O)COc1ccc2c(=O)c(-c3ccccc3OC)coc2c1, which IC50 is on record?
Its IC50 is 2.28 µM.

Which IC50 does the source give for Cc1ccc2oc(=O)c3cc(C(=O)NCCCN4CCCCCC4)sc3c2c1 here?
Its IC50 is 15.8 µM (inactive).

With COc1ccc2nc(/N=C(\N)NC(=O)C(C)(C)C)nc(C)c2c1 as the compound, how does the IC50 read?
Its IC50 is 17.4 µM (inactive).

How did the IC50 turn out when CN1CC=C(/C=C/c2ccc(-c3ccccc3)cc2)CC1 was run?
Its IC50 is 11.4 µM (inactive).

With Cc1cc(NC(=O)C2CCCCC2)n(-c2nc3ccccc3[nH]2)n1 as the compound, how does the IC50 read?
Its IC50 is 6.84 µM.

How did the IC50 turn out when Cn1ccsc1=NC(=O)c1ccccc1F was run?
The IC50 was 22.4 µM (inactive).

CCOc1ccc(OCCSc2ccc(S(=O)(=O)N3CCN(C)CC3)cn2)cc1 was tested. Which IC50 did it give?
The IC50 was 15.5 µM (inactive).

With COC(=O)CCC(=O)Nc1sc(Cc2ccccc2)c(C)c1C(N)=O as the compound, how does the IC50 read?
Its IC50 is 13.6 µM (inactive).

With Cc1ccc(OCCCCn2ccnc2)c([N+](=O)[O-])c1 as the compound, how does the IC50 read?
Its IC50 is 28.5 µM (inactive).

For CCOC(=O)CNC(=O)CNC(=O)c1nn(-c2ccc(OC)c(Cl)c2)c(=O)c2ccccc12, which IC50 is on record?
The IC50 was 29.1 µM (inactive).

How did the IC50 turn out when c1ccc2cc(OCCCn3ccnc3)ccc2c1 was run?
Its IC50 is 16.5 µM (inactive).

With O=C(COC(=O)c1ccccn1)Nc1cccc(Cl)c1Cl as the compound, how does the IC50 read?
Its IC50 is 6.11 µM.

O=C(Cc1c(F)cccc1Cl)Nc1ncc([N+](=O)[O-])s1 was tested. Which IC50 did it give?
The IC50 was 12.1 µM (inactive).

With c1ccc(C2=Nc3ccccc3OC2)cc1 as the compound, how does the IC50 read?
The IC50 was 4.54 µM.

C=C(C)C1CC=C(C)/C(=N/NC(=O)CNc2ccc(OCC)cc2)C1 (stereo not given) was tested. Which IC50 did it give?
Its IC50 is > 25 µM (inactive).

Which IC50 does the source give for Cc1nn(-c2nc3ccccc3[nH]2)c(N)c1-c1ccc(Cl)cc1 here?
Its IC50 is 4.88 µM.

How did the IC50 turn out when O=C(Nc1nnc(-c2ccc(Cl)cc2)o1)C1=COCCO1 was run?
The IC50 was 14 µM (inactive).

Cc1cc(C)nc(/N=C(\N)Nc2ccc(-c3ccccc3)cc2)n1 was tested. Which IC50 did it give?
The IC50 was 3.5 µM.

Which IC50 does the source give for COc1ccc(C(=O)Nc2ccccc2C(=O)N/N=C/c2ccccn2)cc1OC here?
Its IC50 is 24.7 µM (inactive).

For CC(=O)Oc1c(-c2ccc(Br)o2)oc2ccccc2c1=O, which IC50 is on record?
The IC50 was 2.86 µM.

Which IC50 does the source give for CC(C)(C)c1ccccc1OCCOCCN1CCCCCC1 here?
Its IC50 is 16.2 µM (inactive).

For CC(=O)CC1(OC(C)=O)C(=O)N(C)c2ccccc21 (stereo not given), which IC50 is on record?
The IC50 was 21.5 µM (inactive).

With COc1ccc(CNC(=O)c2cc3cccc(O)c3oc2=N)cc1 as the compound, how does the IC50 read?
The IC50 was 14.3 µM (inactive).

How did the IC50 turn out when Cc1ccc(/C=C2\SC(N3CCCC3)=NC2=O)cc1 was run?
Its IC50 is 6.15 µM.

Cc1[nH][nH]c(=O)c1C(c1ccc(-c2ccc(F)cc2)o1)c1c(C)[nH][nH]c1=O was tested. Which IC50 did it give?
The IC50 was 8.5 µM.

With O=C(CNC(=O)c1ccccc1Cl)N/N=C/c1ccc([N+](=O)[O-])s1 as the compound, how does the IC50 read?
Its IC50 is 23.5 µM (inactive).

Which IC50 does the source give for O=C(c1cc([N+](=O)[O-])cc([N+](=O)[O-])c1)N(Cc1nnc(-c2ccccc2Cl)o1)C1CC1 here?
The IC50 was 4.46 µM.

CCOC(=O)c1c(NC(C)=O)sc2c(OCC(O)CNC(C)(C)C)c(Br)ccc12 (stereo not given) was tested. Which IC50 did it give?
The IC50 was 4.44 µM.

With CCCc1cc(=O)n2[nH]c(C)c(-c3ccccc3)c2n1 as the compound, how does the IC50 read?
The IC50 was 11.4 µM (inactive).

O=C(Nc1ccc(Cl)cn1)C1COc2ccccc2O1 (stereo not given) was tested. Which IC50 did it give?
Its IC50 is 3.32 µM.

For COc1cccc(-c2nc(C=O)cs2)c1, which IC50 is on record?
The IC50 was 37.2 µM (inactive).

Which IC50 does the source give for Cc1cc2nc(/N=C(\N)NC(=O)C(C)C)nc(C)c2cc1C here?
Its IC50 is 3.1 µM.

— PubChem BioAssay AID488890 (Southern Research Specialized Biocontainment Screening …, 2010)
